Test results: patent publication US20240174662A1, “SMALL MOLECULE INHIBITORS OF SALT INDUCIBLE KINASES” (Janssen Biotech, Inc., priority 2021, published 2024)
pIC50: −log10 of the molar value.

biological target: SIK2 (Homo sapiens (Human), UniProt Q9H0K1); assay: SIK2 Enzymatic Assay Version 2 (High ATP); type: biochemical; details: 3 mM ATP and 200 μM HDAC5tide final, ADP-Glo Max luminescence
Method in brief: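 Luminescent ADP-Glo Max read-out: depletion reagent 2 h, then detection reagent 1 h. Before the reaction, compounds were incubated 30 min with enzyme added at 6 nM (twice final concentration), with all steps at room temperature.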

SIK2, sequence (Q9H0K1 whole entry, species assumed): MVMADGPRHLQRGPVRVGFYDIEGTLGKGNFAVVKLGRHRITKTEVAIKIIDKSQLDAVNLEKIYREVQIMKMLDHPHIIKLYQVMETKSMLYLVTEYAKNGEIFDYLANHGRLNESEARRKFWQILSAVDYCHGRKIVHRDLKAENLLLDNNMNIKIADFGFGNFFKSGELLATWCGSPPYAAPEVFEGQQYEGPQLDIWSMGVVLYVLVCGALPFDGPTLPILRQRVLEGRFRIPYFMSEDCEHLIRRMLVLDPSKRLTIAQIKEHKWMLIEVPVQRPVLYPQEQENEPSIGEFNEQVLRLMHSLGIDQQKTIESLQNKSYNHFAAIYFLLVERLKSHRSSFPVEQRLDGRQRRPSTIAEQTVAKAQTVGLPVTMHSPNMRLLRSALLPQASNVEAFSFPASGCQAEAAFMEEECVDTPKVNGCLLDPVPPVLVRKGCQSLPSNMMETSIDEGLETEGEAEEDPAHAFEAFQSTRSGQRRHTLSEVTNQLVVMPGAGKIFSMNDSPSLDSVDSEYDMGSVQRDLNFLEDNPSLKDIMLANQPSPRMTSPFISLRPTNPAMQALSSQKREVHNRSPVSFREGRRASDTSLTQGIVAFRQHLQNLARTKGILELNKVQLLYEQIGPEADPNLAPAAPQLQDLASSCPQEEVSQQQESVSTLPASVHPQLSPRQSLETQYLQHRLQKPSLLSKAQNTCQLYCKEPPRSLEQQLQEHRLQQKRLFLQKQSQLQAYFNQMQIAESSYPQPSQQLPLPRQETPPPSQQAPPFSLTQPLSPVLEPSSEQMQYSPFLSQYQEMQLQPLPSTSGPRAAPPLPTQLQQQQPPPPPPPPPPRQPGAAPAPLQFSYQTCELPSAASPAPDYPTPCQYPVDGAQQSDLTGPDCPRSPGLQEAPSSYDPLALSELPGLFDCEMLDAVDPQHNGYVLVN

Row | SMILES | pIC50
1 | Cc1onc(OC[C@H](c2ccccn2)N(C)C)c1-c1ccn2nc(NC(=O)C3CC3)cc2c1 [Example 325, N-[5-[3-[(2S)-2-(dimethylamino)-2-(2-pyridyl)ethoxy]-5-methyl-isoxazol-4-yl]pyrazolo[1,5-a]pyridin-2-yl]cyclopropanecarboxamide] | 7.20
2 | Cc1onc(OC[C@](C)(N)c2ccccc2)c1-c1ccn2nc(NC(=O)C3CC3)cc2c1 [Example 326, N-[5-[3-[(2R)-2-amino-2-phenyl-propoxy]-5-methyl-isoxazol-4-yl]pyrazolo[1,5-a]pyridin-2-yl]cyclopropanecarboxamide] | 7.22
3 | Cc1cc(Nc2cc3cc(-c4c(O[C@@H]5CN[C@H](C(F)F)C5)noc4C)ccn3n2)nc(C)n1 [Example 327, 5-[3-[(3S,5S)-5-(difluoromethyl)pyrrolidin-3-yl]oxy-5-methyl-isoxazol-4-yl]-N-(2,6-dimethylpyrimidin-4-yl)pyrazolo[1,5-a]pyridin-2-amine] | 7.37
4 | Cc1onc(OC[C@@H](N)C2CC2)c1-c1ccn2nc(NC(=O)C3CC3)cc2c1 [Example 328, N-[5-[3-[(2S)-2-amino-2-cyclopropyl-ethoxy]-5-methyl-isoxazol-4-yl]pyrazolo[1,5-a]pyridin-2-yl]cyclopropanecarboxamide] | 7.21
5 | Cc1onc(OC[C@H]2CCN2C)c1-c1ccc2nc(NC(=O)C3CC3)cn2c1 [Example 329, N-[6-[5-methyl-3-[[(2R)-1-methylazetidin-2-yl]methoxy]isoxazol-4-yl]imidazo[1,2-a]pyridin-2-yl]cyclopropanecarboxamide] | 7.46
6 | Cc1snc(O[C@H]2CCNC2)c1-c1ccn2nc(NC(=O)C3CC3)cc2c1 [Example 330, N-[5-[5-methyl-3-[(3S)-pyrrolidin-3-yl]oxy-isothiazol-4-yl]pyrazolo[1,5-a]pyridin-2-yl]cyclopropanecarboxamide] | 7.45
7 | Cc1snc(OC[C@H]2CNCCO2)c1-c1ccn2nc(NC(=O)C3CC3)cc2c1 [Example 331, N-[5-[5-methyl-3-[[(2R)-morpholin-2-yl]methoxy]isothiazol-4-yl]pyrazolo[1,5-a]pyridin-2-yl]cyclopropanecarboxamide] | 7.49
8 | Cc1snc(OC[C@H]2CN(C)CCO2)c1-c1ccn2nc(NC(=O)C3CC3)cc2c1 [Example 332, N-[5-[5-methyl-3-[[(2R)-4-methylmorpholin-2-yl]methoxy]isothiazol-4-yl]pyrazolo[1,5-a]pyridin-2-yl]cyclopropanecarboxamide] | 7.23
9 | CN1CCO[C@@H](COc2cnn(C)c2-c2ccn3nc(NC(=O)C4CC4)cc3c2)C1 [Example 333, N-[5-[2-methyl-4-[[(2R)-4-methylmorpholin-2-yl]methoxy]pyrazol-3-yl]pyrazolo[1,5-a]pyridin-2-yl]cyclopropanecarboxamide] | 7.27
10 | Cn1ncc(OC[C@H]2C[C@H](N)C2)c1-c1ccn2nc(NC(=O)C3CC3)cc2c1 [Example 334, N-[5-[4-[(3-aminocyclobutyl)methoxy]-2-methyl-pyrazol-3-yl]pyrazolo[1,5-a]pyridin-2-yl]cyclopropanecarboxamide] | 7.26
11 | Cn1ncc(O[C@@H]2CCNC2)c1-c1ccn2nc(NC(=O)C3CC3)cc2c1 [Example 335, N-[5-[2-methyl-4-[(3R)-pyrrolidin-3-yl]oxy-pyrazol-3-yl]pyrazolo[1,5-a]pyridin-2-yl]cyclopropanecarboxamide] | 7.16
12 | C[C@@H]1C[C@H](Oc2cnn(C)c2-c2ccn3nc(NC(=O)C4CC4)cc3c2)CN1C [Example 336, N-[5-[4-[(3S,5R)-1,5-dimethylpyrrolidin-3-yl]oxy-2-methyl-pyrazol-3-yl]pyrazolo[1,5-a]pyridin-2-yl]cyclopropanecarboxamide] | 7.18
13 | C[C@H]1C[C@H](Oc2cnn(C)c2-c2ccn3nc(NC(=O)C4CC4)cc3c2)CN1 [Example 338, N-[5-[2-methyl-4-[(3S,5S)-5-methylpyrrolidin-3-yl]oxy-pyrazol-3-yl]pyrazolo[1,5-a]pyridin-2-yl]cyclopropanecarboxamide] | 7.28
14 | CN1CC[C@H](Oc2cnn(C)c2-c2ccn3nc(Nc4ccc(C(F)(F)F)cn4)cc3c2)C1 [Example 339, 5-[2-methyl-4-[(3S)-1-methylpyrrolidin-3-yl]oxy-pyrazol-3-yl]-N-[5-(trifluoromethyl)-2-pyridyl]pyrazolo[1,5-a]pyridin-2-amine] | 7.16
15 | CN1CC[C@H](Oc2cnn(C)c2-c2ccn3nc(Nc4cc(C(F)(F)F)ccn4)cc3c2)C1 [Example 340, 5-[2-methyl-4-[(3S)-1-methylpyrrolidin-3-yl]oxy-pyrazol-3-yl]-N-[4-(trifluoromethyl)-2-pyridyl]pyrazolo[1,5-a]pyridin-2-amine] | 7.26
16 | C[C@H]1CN[C@@H]1COc1cnn(C)c1-c1ccn2nc(NC(=O)C3CC3)cc2c1 [Example 341, N-[5-[2-methyl-4-[[(2S,3S)-3-methylazetidin-2-yl]methoxy]pyrazol-3-yl]pyrazolo[1,5-a]pyridin-2-yl]cyclopropanecarboxamide] | 7.24
17 | CN1CC[C@H](Oc2cnn(C)c2-c2ccn3nc(Nc4cc5ccccc5nn4)cc3c2)C1 [Example 342, N-[5-[2-methyl-4-[(3S)-1-methylpyrrolidin-3-yl]oxy-pyrazol-3-yl]pyrazolo[1,5-a]pyridin-2-yl]cinnolin-3-amine] | 7.16
18 | CN1CC[C@H](Oc2cnn(C)c2-c2ccn3nc(Nc4cnc5ccccc5n4)cc3c2)C1 [Example 343, N-[5-[2-methyl-4-[(3S)-1-methylpyrrolidin-3-yl]oxy-pyrazol-3-yl]pyrazolo[1,5-a]pyridin-2-yl]quinoxalin-2-amine] | 7.26
19 | CN1CC[C@H](Oc2cnn(C)c2-c2ccn3nc(Nc4cc5ccccn5n4)cc3c2)C1 [Example 344, 5-[2-methyl-4-[(3S)-1-methylpyrrolidin-3-yl]oxy-pyrazol-3-yl]-N-pyrazolo[1,5-a]pyridin-2-yl-pyrazolo[1,5-a]pyridin-2-amine] | 7.25
20 | Cn1ncc(OC[C@H]2CNC[C@@H]2O)c1-c1ccn2nc(NC(=O)C3CC3)cc2c1 [Example 345, N-[5-[4-[[(3R,4R)-4-hydroxypyrrolidin-3-yl]methoxy]-2-methyl-pyrazol-3-yl]pyrazolo[1,5-a]pyridin-2-yl]cyclopropanecarboxamide] | 7.24
21 | Cn1ncc(OC[C@H]2CCN2)c1-c1ccn2nc(NC(=O)C3CC3)cc2c1 [Example 346, (R)—N-(5-(4-(azetidin-2-ylmethoxy)-1-methyl-1H-pyrazol-5-yl)pyrazolo[1,5-a]pyridin-2-yl)cyclopropanecarboxamide] | 7.23
22 | Cn1ncc(OC[C@@H](N)C(C)(C)C)c1-c1ccn2nc(NC(=O)C3CC3)cc2c1 [Example 348, N-[5-[4-[(2S)-2-amino-3,3-dimethyl-butoxy]-2-methyl-pyrazol-3-yl]pyrazolo[1,5-a]pyridin-2-yl]cyclopropanecarboxamide] | 7.26

Next, values leading:

Row | pIC50 | SMILES
23 | 7.17 | Cn1ncc(OC[C@H]2CCN2C2CC2)c1-c1ccn2nc(NC(=O)C3CC3)cc2c1 [Example 347, N-[5-[4-[[(2R)-1-cyclopropylazetidin-2-yl]methoxy]-2-methyl-pyrazol-3-yl]pyrazolo[1,5-a]pyridin-2-yl]cyclopropanecarboxamide]
24 | 7.25 | Cc1ncc(Nc2cc3cc(-c4c(O[C@H]5CCN(C)C5)cnn4C)ccn3n2)nc1C [Example 349, N-(5,6-dimethylpyrazin-2-yl)-5-[2-methyl-4-[(3S)-1-methylpyrrolidin-3-yl]oxy-pyrazol-3-yl]pyrazolo[1,5-a]pyridin-2-amine]
25 | 7.18 | Cn1ncc(OC[C@H]2CCCN2CCF)c1-c1ccn2nc(NC(=O)C3CC3)cc2c1 [Example 350, N-[5-[4-[[(2R)-1-(2-fluoroethyl)pyrrolidin-2-yl]methoxy]-2-methyl-pyrazol-3-yl]pyrazolo[1,5-a]pyridin-2-yl]cyclopropanecarboxamide]
26 | 7.28 | CO[C@H]1CNC[C@@H]1COc1cnn(C)c1-c1ccn2nc(NC(=O)C3CC3)cc2c1 [Example 351, N-[5-[4-[[(3R,4R)-4-methoxypyrrolidin-3-yl]methoxy]-2-methyl-pyrazol-3-yl]pyrazolo[1,5-a]pyridin-2-yl]cyclopropanecarboxamide]
27 | 7.17 | Cc1cc(Nc2cc3cc(-c4c(O[C@@H]5CCN(C)[C@H]5C)cnn4C)ccn3n2)nc(C)n1 [Example 354, N-(2,6-dimethylpyrimidin-4-yl)-5-[4-[(2S,3R)-1,2-dimethylpyrrolidin-3-yl]oxy-2-methyl-pyrazol-3-yl]pyrazolo[1,5-a]pyridin-2-amine]
28 | > 9.07 | [2H]C([2H])([2H])N1CC[C@@H]1COc1cnn(C([2H])([2H])[2H])c1-c1ccn2nc(Nc3cc(C)nc(C)n3)cc2c1 [Example 355, N-(2,6-dimethylpyrimidin-4-yl)-5-[2-(trideuteriomethyl)-4-[[(2R)-1-(trideuteriomethyl)azetidin-2-yl]methoxy]pyrazol-3-yl]pyrazolo[1,5-a]pyridin-2-amine]
29 | 7.28 | CCN1CC[C@H]1COc1cnn(C)c1-c1ccn2nc(Nc3cnc(C)c(C)n3)cc2c1 [Example 359, N-(5,6-dimethylpyrazin-2-yl)-5-[4-[[(2S)-1-ethylazetidin-2-yl]methoxy]-2-methyl-pyrazol-3-yl]pyrazolo[1,5-a]pyridin-2-amine]
30 | 7.48 | Cn1ncc(COC2CNC2)c1-c1ccn2nc(NC(=O)C3CC3)cc2c1 [Example 360, N-[5-[4-(azetidin-3-yloxymethyl)-2-methyl-pyrazol-3-yl]pyrazolo[1,5-a]pyridin-2-yl]cyclopropanecarboxamide]
31 | 7.27 | CN1CC(OCc2cnn(C)c2-c2ccn3nc(NC(=O)C4CC4)cc3c2)C1 [Example 361, N-[5-[2-methyl-4-[(1-methylazetidin-3-yl)oxymethyl]pyrazol-3-yl]pyrazolo[1,5-a]pyridin-2-yl]cyclopropanecarboxamide]
32 | 7.28 | CN1CC[C@@H](OCc2cnn(C)c2-c2ccn3nc(NC(=O)C4CC4)cc3c2)C1 [Example 362, N-[5-[2-methyl-4-[[(3R)-1-methylpyrrolidin-3-yl]oxymethyl]pyrazol-3-yl]pyrazolo[1,5-a]pyridin-2-yl]cyclopropanecarboxamide]
